Series [1] relates to Arabidopsis thaliana {Lti6b-GFP line}. Briefly: Administration of purified recombinant stomagen to germinated seedlings (Example 4). The series is classed as in vivo. How it is done: Seeds of Arabidopsis thaliana {Lti6b-GFP line} were maintained in a B5 sterilized medium {manufactured by NIHON PHARMACEUTICAL CO., LTD, catalogue number: 399-00621} for germination. To the Lti6b-GFP line at 2 days after germination was administered the purified recombinant stomagen obtained in Example 2, so as to have a concentration of 2 μM. Thereafter, the Lti6b-GFP line was grown for 3 days at 22° C. The abaxial epidermis of the cotyledons was observed under a confocal microscope. The same operation was carried out as described above, using as a control an Lti6b-GFP line to which stomagen was not administered. The abaxial epidermis of the cotyledons was observed. A confocal microscopic image of abaxial epidermis of the cotyledon of the Lti6b-GFP-expressing line to which the purified recombinant stomagen was not administered in Example 4 is shown in FIG. 26 (a) and a confocal microscopic image of abaxial epidermis of the cotyledon of the Lti6b-GFP-expressing line to which the purified recombinant stomagen (2 μM) was administered in Example 4 is shown in FIG. 26 (b). In the figures, a scale bar represents 50 μm.

The subject of the next series is spch mutant. Put plainly: Administration of purified recombinant stomagen to spch mutant (Test Example 9). The settings on record: 2 μM administered to spch mutant at 2 days after germination, grown 3 days; abaxial epidermis of cotyledon. The series is classed as in vivo, Arabidopsis thaliana. The procedure: The seeds of the spch mutant or the seeds of Arabidopsis thaliana Col-0 line (stock number: CS60000) {wild-type strain} were maintained in a B5 sterilized medium for germination. To the spch mutant or the wild-type strain at 2 days after germination was administered the purified recombinant stomagen obtained in Example 2, so as to have a concentration of 2 μM. Thereafter, the spch mutant or the wild-type strain was grown at 22° C. for 3 days. The abaxial epidermis of the cotyledon was observed under a confocal microscope {manufactured by Zeiss, trade name: LSM510 META microscope}. The abaxial epidermis of the cotyledons was observed by carrying out the same operation was carried out as described above with the use of a spch mutant line to which stomagen was not administered as a control. A confocal microscopic image of abaxial epidermis of the cotyledon of the spch mutant to which purified recombinant stomagen was not administered in Test Example 9 is shown in FIG. 28 (a), a confocal microscopic image of abaxial epidermis of the cotyledon of the spch mutant to which purified recombinant stomagen (2 μM) was administered in Test Example 9 is shown in FIG. 28 (b), and a confocal microscopic image of abaxial epidermis of the cotyledon of the wild-type strain to which purified recombinant stomagen (2 μM) was administered in Test Example 9 is shown in FIG. 28 (c).

The test system of the next series is soybean (Kariyutaka). Briefly: Addition of synthetic stomagen to soybean shoot apex (Example 8). The settings on record: 1 μM, 10 μM or 100 μM added to shoot apex at second leaf stage, grown for a week. Format: in vivo. How it is done:
The seeds of soybean (Kariyutaka) were seeded to a pot containing potting compost, germinated and then grown until the second leaf stage. Then, the synthetic stomagen obtained in Example 5 was added to the shoot apex, so as to have a concentration of 1 μM, 10 μM or 100 μM. Thereafter, the resulting plant was grown for a week and observed under a differential interference microscope {manufactured by Zeiss, trade name: Axioskop plus microscope}, to determine the number of stomata in a square area of 0.22 mm^2. Then, stomatal density was calculated. Here, statistical analysis was conducted using R statistical analysis software. […] In the figure, an open triangle, an open square and an open circle each show a different plant.

The test system of series [2] is Arabidopsis thaliana Col-0 line. Put plainly: Heat and lyophilization treatment of stomagen, then stomatal density test (Test Example 16). Format: in vivo. The settings on record: 60° C. for 5 minutes, 90° C. for 5 minutes or lyophilized; administered at 3 μM, cotyledon. The procedure: The chemically synthesized stomagen obtained in Example 5 was incubated at 60° C. for 5 minutes (sample number 3) or at 90° C. for 5 minutes (sample number 4). In addition, the chemically synthesized stomagen obtained in Example 5 was lyophilized (sample number 5).
The seeds of Arabidopsis thaliana Col-0 line (stock number: CS60000) were maintained and germinated in a B5 sterilized medium. To the Arabidopsis thaliana Col-0 line (stock number: CS60000) at 2 days after germination was administered the untreated stomagen (sample number 2), the stomagen incubated at 60° C. for 5 minutes (sample number 3), the stomagen incubated at 90° C. for 5 minutes (sample number 4), or the lyophilized stomagen (sample number 5), so as to have a concentration of 3 μM.
Thereafter, the Arabidopsis thaliana Col-0 line (stock number: CS60000) was grown at 22° C. for 3 days. Next, the cotyledon was collected, and the surface of the cotyledon was observed under a confocal microscope {manufactured by Zeiss, trade name: LSM510 META microscope}, to determine the number of stomata in a square area of 0.22 mm^2. Then, stomatal density was calculated. […] Stomatal density was calculated by carrying out the same operation as described above with the use of Arabidopsis thaliana Col-0 line (stock number: CS60000) to which stomagen was not administered as a control (sample number 1). […]

For series [3], the system named is rice {strain “Nipponbare”}. Put plainly: Administration of synthetic stomagen to rice seeds (Test Example 14). The note with it: 200 μL of 80 μM stomagen added to 5 mL water at seeding; abaxial epidermis of second leaf at 32 days after seeding; vs not administered. The series is classed as in vivo. The procedure: The seeds of rice {strain “Nipponbare”} were seeded to a container {50-mL volume, manufactured by greiner} with 5 mL of desalted water, and thereafter 200 μL of 80 μM stomagen (the synthetic stomagen obtained in Example 5) was added thereto. Then, the seeds were maintained at 22° C. for 8 days. Thereafter, the resulting plant was grown at 22° C. in a B5 sterilized medium. The second leaves of rice at 32 days after seeding were collected. Then, the second leaves were fixed and made transparent, and then stomata were stained by carrying out the same operation as in Test Example 1. Thereafter, the abaxial epidermis of the second leaves was observed under a differential interference microscope {manufactured by Zeiss, trade name: Axioskop plus microscope}. The abaxial epidermis of the second leaves of the rice at 32 days after seeding was observed by carrying out the same procedure as in the above with the use of a rice to which stomagen was not administered as a control. A differential interference image of abaxial epidermis of the second leaf of the rice to which synthesized stomagen was administered in Test Example 14 is shown in FIG. 39 (a) and a differential interference image of abaxial epidermis of the second leaf of the rice to which synthesized stomagen was not administered in Test Example 14 is shown in FIG. 39 (b). In the figures, a framed part represents a stoma. […]

Series [4] relates to Arabidopsis thaliana {Lti6b-GFP line}. Briefly: Administration of synthetic stomagen to germinated seedlings (Example 6). The series is classed as in vivo. The procedure: The seeds of Arabidopsis thaliana {Lti6b-GFP line} were maintained in a B5 sterilized medium for germination. To the Lti6b-GFP line at 2 days after germination was administered the synthetic stomagen obtained in Example 5, so as to have a concentration of 300 nM. Thereafter, the Lti6b-GFP line was grown for 3 days at 22° C. Next, the cotyledon was collected. The surface was observed under a confocal microscope {manufactured by Zeiss, trade name: LSM510 META microscope}, to determine the number of stomata in a square area of 0.22 mm^2. Then, stomatal density was calculated. Here, statistical analysis was conducted by using R statistical analysis software. In addition, stomatal density was calculated by carrying out the same operation as described above with the use of an Lti6b-GFP line to which stomagen was not administered as a control. The result of examining the relationship between the amount of synthesized stomagen and stomatal density in Example 6 is shown in FIG. 27.

[5] abbreviates: 2 μM at 2 days after germination, grown 3 days at 22° C., abaxial epidermis of cotyledon, vs not administered.

Where no end group is shown, it is not given here.

On to “purified recombinant stomagen: stomagen expressed in tobacco-cultured BY-2 cells and purified from culture supernatant by reversed-phase HPLC (IGSTAPTCTYNECRGCRYKCRAEQVPVEGNDPINSAYHYRCVCHR; Stomagen; UniProt Q9SV72 58-102, looked up)”, for which, in series [1] (setting [5]), the number of stomata result is on record as “increased” and the stomatal density result is given as “increased”. Further, the “stomatal density, concentration dependence” value in series [1] (recombinant stomagen expressed in BY-2 cells) is reported as “concentration-dependently increase”.
Regarding “stomagen: polypeptide comprising the amino acid sequence shown in SEQ ID NO: 6; 45-amino-acid peptide having six cysteine residues (IGSTAPTCTYNECRGCRYKCRAEQVPVEGNDPINSAYHYRCVCHR; listed as Arabidopsis thaliana)”, the stomata result in the series with spch mutant is on record as “do not increase”. For the same substance, the “relationship between stomagen concentration and stomatal density” value in the series on soybean (Kariyutaka) is reported as “positive correlation”. Moreover, the “stability to heat and drying (stomatal density after treatment)” value in series [2] was “stable to heat and drying”.
Turning to “synthetic stomagen: chemically synthesized polypeptide (45 amino acids) comprising 58th to 102nd amino acid residues of SEQ ID NO: 1, refolded by dialysis (IGSTAPTCTYNECRGCRYKCRAEQVPVEGNDPINSAYHYRCVCHR; also: refolded by dialysis, disulfide pairing not given here; listed as Arabidopsis thaliana)”, the number of stomata result in series [3] is “increase”. Also, the stomatal density result in series [3] is reported as “increase”; in series [4] (300 nM at 2 days after germination, grown 3 days at 22° C., abaxial epidermis of cotyledon, vs not administered) it was “increases”. In addition, in series [4] (chemically synthesized stomagen), the “stomatal density, concentration dependence” value is on record as “concentration-dependently increase”.

The values above are taken from patent US9115367B2, “Stomata-increasing agent, polypeptide, method for increasing number and/or density of stomata in plant, and method for increasing yield of plant” (KYOTO UNIVERSITY, priority 2009, dated 2015).
